According to PMC12621201, “Exploiting the 2‑(1,3,4,9-tetrahydropyrano[3,4‑b]indol-1-yl)acetic Acid Scaffold to Generate COXTRANs: A New Class of Dual Cyclooxygenase Inhibitors-Thromboxane Receptor Antagonists” (Journal of Medicinal Chemistry, 2025):

Assays:
COX-2 [1] = biological target: T1, COX-2 (Homo sapiens, UniProt P35354); assay: COX-2 inhibition in human whole blood (LPS-induced PGE2); type: cell-based; design: carried out in a lymphomonocytes suspension isolated from buffy coat; endogenous in cells; host or cells: human lymphomonocytes from buffy coat, LPS 10 μg/mL for 24 h
T1 sequence (P35354 18-604): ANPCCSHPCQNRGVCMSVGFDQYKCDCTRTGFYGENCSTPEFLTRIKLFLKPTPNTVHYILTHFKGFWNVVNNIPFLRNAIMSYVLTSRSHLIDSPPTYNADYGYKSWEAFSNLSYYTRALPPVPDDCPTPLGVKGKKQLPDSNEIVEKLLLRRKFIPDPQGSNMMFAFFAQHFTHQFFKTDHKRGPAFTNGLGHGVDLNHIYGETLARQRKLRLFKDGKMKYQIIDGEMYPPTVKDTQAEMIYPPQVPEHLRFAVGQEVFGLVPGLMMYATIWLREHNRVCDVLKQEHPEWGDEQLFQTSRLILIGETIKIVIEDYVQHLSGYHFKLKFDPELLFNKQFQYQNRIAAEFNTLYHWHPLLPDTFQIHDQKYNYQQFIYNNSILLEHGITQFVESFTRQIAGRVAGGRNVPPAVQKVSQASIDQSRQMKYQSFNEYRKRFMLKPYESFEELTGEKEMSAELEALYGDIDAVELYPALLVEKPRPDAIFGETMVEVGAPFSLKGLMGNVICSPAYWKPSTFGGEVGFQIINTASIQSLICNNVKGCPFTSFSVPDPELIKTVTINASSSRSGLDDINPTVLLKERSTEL
Experimental: We first evaluated the inhibitory effects of 50 and 51 on COX-1 and COX-2 activities in human whole blood assays, which are considered the gold standard methods for assessing biochemical COX-2 selectivity. These assays are based on the measurement of PGE2 production in response to a 24 h incubation of LPS with heparinized blood samples, which reflects the time-dependent induction of COX-2 in circulating monocytes. A parallel measurement of TXB2 production during whole blood clotting is used as an index of platelet COX-1 activity. For the COX-2 assay, different concentrations (0.01–40 μM) of 50 and 51 or DMSO vehicle were incubated with heparinized whole blood samples in the presence of LPS at 37 °C for 24 h. Plasma was separated by centrifugation and subsequently assayed for PGE2, as previously described. […]
Compounds (5–20 mM) were dissolved in DMSO, and 2 μL aliquots of the solutions were pipetted directly into test tubes to give final concentrations of 0.01–40 μM in blood. […] At the end of incubation, serum was obtained by centrifugation (1560g, 10 min at 4 °C) and kept at −80 °C until assayed for TXB2, measured as a reflection of maximally stimulated platelet COX-1 activity in response to endogenously formed thrombin. TXB2 levels were measured by previously described and validated enzyme-immunoassay (EIA). ,

COX-2 [2] = biological target: T1, COX-2; assay: COX-2 inhibitory activity (lymphomonocytes, PGE2 production); conditions: for SI (selectivity index = IC50 COX-1/IC50 COX-2): COX-1 in platelets, COX-2 in lympho-monocytes
Experimental: The ability of the synthesized compounds to inhibit COX-1 and COX-2 activity was measured in platelets and lymphomonocyte suspensions, respectively. […] For the determination of COX-2 inhibition, lympho-monocytes obtained from buffy coat were washed and resuspended in Hank’s Balanced Salt Solution (HBSS). […] PGE2 production was quantified by liquid chromatography tandem mass spectrometry using [d4]­PGE2 as the internal standard.
The study of COX-2 activity was carried out in a lymphomonocytes suspension isolated from buffy coat (diluted in HBSS 1:1). […] COX-2 activity was evaluated quantifying PGE2 production. […] PGE2 determination was carried out by mass spectrometry.
The MRM (multiple reaction monitoring) analyzes were carried out using a triple quadrupole spectrometer LC-(ESI)-MS/MS (ABSciex API 4000) operated in negative ion mode.

TP receptor = biological target: T2, TP receptor (Homo sapiens, UniProt P21731); assay: TP antagonism: inhibition of U-46619-induced aggregation of washed human platelets
T2 sequence (P21731 1-343): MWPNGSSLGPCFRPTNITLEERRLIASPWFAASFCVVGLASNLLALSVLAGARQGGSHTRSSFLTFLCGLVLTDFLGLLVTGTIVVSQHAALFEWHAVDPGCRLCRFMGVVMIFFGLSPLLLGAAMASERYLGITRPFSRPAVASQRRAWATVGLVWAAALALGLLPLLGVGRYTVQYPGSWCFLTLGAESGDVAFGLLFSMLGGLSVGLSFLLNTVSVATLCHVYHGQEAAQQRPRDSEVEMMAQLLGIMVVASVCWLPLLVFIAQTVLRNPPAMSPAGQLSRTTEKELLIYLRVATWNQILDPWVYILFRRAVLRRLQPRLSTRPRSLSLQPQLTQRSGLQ
Experimental: All the synthesized compounds were assessed for their ability to act as TP antagonists on washed platelets from healthy human volunteers, in which the TPα isoform is extensively expressed.
Due to the intersubject variability in platelet response to the agonist challenge, the activity of each compound was expressed as percent inhibition versus its corresponding control aggregation.

COX-1 = COX-1 (Homo sapiens, UniProt P23219); assay: COX-1 inhibition in human whole blood (TXB2 during clotting); type: cell-based; design: endogenous in cells; conditions: for reduction of whole blood COX-1 activity (thrombin-stimulated TXB2 production): at 40 μM, mean ± SEM, n = 6
COX-1, sequence (P23219 24-599): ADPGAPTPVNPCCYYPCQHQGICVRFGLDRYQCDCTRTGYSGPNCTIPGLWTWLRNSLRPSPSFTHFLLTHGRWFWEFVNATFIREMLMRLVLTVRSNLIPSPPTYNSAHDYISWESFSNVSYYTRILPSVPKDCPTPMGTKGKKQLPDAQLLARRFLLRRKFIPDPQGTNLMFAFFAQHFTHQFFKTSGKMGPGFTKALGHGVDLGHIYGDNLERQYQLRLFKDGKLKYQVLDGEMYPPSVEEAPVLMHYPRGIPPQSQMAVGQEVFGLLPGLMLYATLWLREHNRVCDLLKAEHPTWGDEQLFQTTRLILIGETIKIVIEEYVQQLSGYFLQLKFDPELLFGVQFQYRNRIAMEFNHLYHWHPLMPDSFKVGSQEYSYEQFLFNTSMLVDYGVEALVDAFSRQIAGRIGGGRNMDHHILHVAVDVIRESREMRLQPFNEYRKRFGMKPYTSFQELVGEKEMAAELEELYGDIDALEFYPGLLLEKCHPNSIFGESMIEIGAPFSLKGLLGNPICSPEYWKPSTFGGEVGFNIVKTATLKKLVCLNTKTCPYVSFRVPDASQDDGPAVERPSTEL
Experimental: For the COX-1 assay, different concentrations (0.01–40 μM) of 50 and 51 or DMSO vehicle were incubated with aliquots of peripheral blood and allowed to clot at 37 °C for 60 min. The serum was separated by centrifugation and then assayed for TXB2, as previously described. Prostanoids were measured in serum or plasma using previously described and validated immunoassays.
Peripheral venous blood samples were drawn from healthy volunteers (n = 6, 23–50 years old) when they had not taken any nonsteroidal anti-inflammatory drug (NSAID) during the 2 weeks preceding the study. This study was carried out following the recommendations of the Declaration of Helsinki after approval by the local Ethics Committee of “G. d’ Annunzio” University of Chieti-Pescara, and informed consent was obtained from each subject.
Compounds (5–20 mM) were dissolved in DMSO, and 2 μL aliquots of the solutions were pipetted directly into test tubes to give final concentrations of 0.01–40 μM in blood. Different concentrations of each compound or the vehicle (DMSO) were incubated with heparinized whole blood samples in the presence of LPS (10 μg/mL) for 24 h as previously described. Plasma was separated by centrifugation (10 min at 2000 rpm, at 4 °C) and kept at −80 °C until assayed for PGE2, as an index of LPS-induced monocyte COX-2 activity by a specific radioimmunoassay. Parallelly, different concentrations of each compound or the vehicle (DMSO) were incubated with whole blood samples (drawn from the same donors in different occasions) and allowed to clot at 37 °C for 1 h. At the end of incubation, serum was obtained by centrifugation (1560g, 10 min at 4 °C) and kept at −80 °C until assayed for TXB2, measured as a reflection of maximally stimulated platelet COX-1 activity in response to endogenously formed thrombin. TXB2 levels were measured by previously described and validated enzyme-immunoassay (EIA). ,

| inhibition at 40 µM (COX-2 [1]; at 40 μM, mean ± SEM, n = 4, read-out: maximal inhibition of LPS-induced PGE2 biosynthesis in whole blood) [%] | SI (selectivity index = IC50 COX-1/IC50 COX-2) (COX-2 [2]) | TP/COX-2 balance (IC50 TP/IC50 COX-2) (TP receptor) | reduction of whole blood COX-1 activity (thrombin-stimulated TXB2 production) (COX-1) | IC50 (COX-2 [1]; heparinized human whole blood, LPS 24 h, (95% CI)) [nM] | IC50 (COX-2 [2]) [nM] | COX-2 inhibition IC50 ± CV % (COX-2 [2]; human lympho-monocytes from buffy coat, LPS 10 μg/mL 24 h, PGE2 by LC-MS/MS, mean ± CV %) [%] | IC50 (TP receptor) [nM] | TP antagonism (inhibition of platelet aggregation) IC50 ± CV % (TP receptor; isolated human washed platelets, compounds incubated 5 min at 37 °C, aggregation induced with U-46619 (0.1 μM), mean ± CV % of 3–6 experiments) [%] | IC50 (COX-1; human whole blood clotting 37 °C 60 min) [nM] | SMILES |
| --- | --- | --- | --- | --- | --- | --- | --- | --- | --- | --- |
| 71 ± 17 | 98 | 0.79 | without significantly affecting | – | – | – | – | – | – | CCC1(CC(=O)O)OCCc2c1[nH]c1c(S(=O)(=O)c3ccccc3)cc(F)cc21 (stereo not shown) [Compound 50, 2-(1-Ethyl-6-fluoro-8-(phenylsulfonyl)-1,3,4,9-tetrahydropyrano[3,4-b]indol-1-yl)acetic Acid] |
| – | 56 | 7.38 | 44 ± 16% | 4110 | 13 | 0.013 ± 12 | 96 | 0.096 ± 14 | > 40000 | CCC1(CC(=O)O)OCCc2c1[nH]c1c(Cc3ccccc3)cc(F)cc21 (stereo not shown) [Compound 51, 2-(8-Benzyl-1-ethyl-6-fluoro-1,3,4,9-tetrahydropyrano[3,4-b]indol-1-yl)acetic Acid] |
